Data set [1] deals with T1, human macrophage elastase (HME/hMMP-12) (Homo sapiens, UniProt P39900).
T1 construct: purchased R&D Systems 917-MP
The data set can be described thus: In vitro HME inhibition test (standard or high-sensitivity). Format: biochemical. The following applies: in some cases mean values, rounded to two significant figures. The method, boiled down: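 Autoactivated HME (0.5 nM; high-sensitivity format 0.05 nM, ~16 h) with 5 μM quenched Mca-PLGLEEA-Dap(Dnp)-NH2 substrate in HEPES pH 7.4, NaCl, CaCl2, ZnCl2, EDTA, Brij buffer, 2 h at 37° C. Fluorescence at ex 323/em 393 nm; IC50 from signal versus concentration.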

Data set [2] has as its system rat hepatocytes. The data set can be described thus: Hepatocyte assay for determination of metabolic stability. Format: in vitro ADME. The following applies: after incubation with rat hepatocytes. As to the method: The metabolic stability of test compounds towards hepatocytes is determined by incubating the compounds at low concentrations (preferably below or around 1 μM) and at low cell counts (preferably at 1*10^6 cells/ml) in order to ensure maximum linearity of kinetic conditions in the experiment. Seven samples from the incubation solution are taken for the LC-MS analysis within a fixed time pattern, in order to determine the half-life (i.e. the degradation) of the particular compound. This half-life is used to calculate various “Clearance” parameters (CL) and “Fmax” values (see below).
The CL and Fmax values are a measure of the phase 1 and phase 2 metabolism of the compounds in the hepatocytes. In order to minimize the influence of the organic solvent on the enzymes in the incubation batches, the concentration thereof is generally limited to 1% (acetonitrile) or 0.1% (DMSO).
For all species and breeds, a hepatocyte cell count in the liver of 1.1*10^8 cells/g of liver is expected.

T1 sequence (P39900 106-470): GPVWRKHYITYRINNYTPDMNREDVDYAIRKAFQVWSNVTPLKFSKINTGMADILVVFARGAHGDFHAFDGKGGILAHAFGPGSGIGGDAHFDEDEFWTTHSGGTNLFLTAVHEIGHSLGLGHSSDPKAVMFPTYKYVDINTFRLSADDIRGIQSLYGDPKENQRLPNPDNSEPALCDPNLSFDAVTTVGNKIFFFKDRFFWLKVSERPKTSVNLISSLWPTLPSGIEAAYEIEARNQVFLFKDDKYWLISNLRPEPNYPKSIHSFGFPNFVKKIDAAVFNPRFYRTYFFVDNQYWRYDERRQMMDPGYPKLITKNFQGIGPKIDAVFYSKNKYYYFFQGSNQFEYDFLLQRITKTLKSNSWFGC

A word on the IC50: it is the concentration at which inhibition is half-maximal. Read a low IC50 as inhibition by little substance. On to `CCCCCOc1ccc2cc(C(=O)CC(CCn3nnc4ccccc4c3=O)C(=O)O)oc2c1` (single isomer, unassigned; (+)) [Example 57, (+)-4-Oxo-2-[2-(4-oxo-1,2,3-benzotriazin-3(4H)-yl)ethyl]-4-[6-(pentyloxy)-1-benzofur-2-yl]butanoic acid], for which, in data set [1], the 50% inhibitory concentration (IC50) came out at 2.1 nM. Besides, in data set [2], the “CLblood (calculated blood clearance, well-stirred)” value was 35.7 mL/min/kg and the “Fmax (maximum possible bioavailability after oral administration, well-stirred)” value was 48.9%.
For `O=C(C[C@@H](CCn1nnc2ccccc2c1=O)C(=O)O)c1noc2cc(OCC3CCOCC3)ccc12` (single isomer, unassigned; enantiomer 1) [Example 134] the same measures were 24 nM, 19.7 mL/min/kg and 71.8%.
For `O=C(CC(CCn1nnc2ccccc2c1=O)C(=O)O)c1noc2cc(OCC3CCOCC3)ccc12` (racemic) [Example 133, (+/−)-4-Oxo-2-[2-(4-oxo-1,2,3-benzotriazin-3(4H)-yl)ethyl]-4-[6-(tetrahydro-2H-pyran-4-ylmethoxy)-1,2-benzoxazol-3-yl]butanoic acid] the same measures were 0.24 nM, 13.3 mL/min/kg and 81.1%.
In data set [1], `CS(=O)(=O)c1ccc(COc2ccc3oc(C(=O)CC(CCn4nnc5ccccc5c4=O)C(=O)O)cc3c2)cc1` (racemic) [Example 38, (+/−)-4-(5-{[4-(Methylsulphonyl)benzyl]oxy}-1-benzofur-2-yl)-4-oxo-2-[2-(4-oxo-1,2,3-benzotriazin-3(4H)-yl)ethyl]butanoic acid] displayed an IC50 of 0.72 nM. Moreover, in data set [2], the “CLblood (calculated blood clearance, well-stirred)” value is 12.5 mL/min/kg and the “Fmax (maximum possible bioavailability after oral administration, well-stirred)” value is given as 82.1%.
The matching figures for `O=C(CC(CCn1nnc2ccc(C(F)(F)F)cc2c1=O)C(=O)O)c1cc2ccc(OCC3CC3)cc2s1` (single isomer, unassigned; enantiomer 2) [Example 130, 4-[6-(Cyclopropylmethoxy)-1-benzothiophen-2-yl]-4-oxo-2-{2-[4-oxo-6-(trifluoromethyl)-1,2,3-benzotriazin-3(4H)-yl]ethyl}butanoic acid (enantiomer 2)]: 0.12 nM, 34.8 mL/min/kg and 50.3%.
For `O=C(CC(CCn1nnc2ccccc2c1=O)C(=O)O)c1coc2cc(OCc3ccc(Cl)c(Cl)c3)ccc12` (single isomer, unassigned) [Example 94, 4-{6-[(3,4-Dichlorobenzyl)oxy]-1-benzofur-3-yl}-4-oxo-2-[2-(4-oxo-1,2,3-benzotriazin-3(4H)-yl)ethyl]butanoic acid] the same measures were 0.82 nM, 25.8 mL/min/kg and 63.2%.
Molecule `CCCCCCCOc1ccc2cc(C(=O)CC(CCn3nnc4ccccc4c3=O)C(=O)O)oc2c1` (racemic) [Example 67, (+/−)-4-[6-(Heptyloxy)-1-benzofur-2-yl]-4-oxo-2-[2-(4-oxo-1,2,3-benzotriazin-3(4H)-yl)ethyl]butanoic acid] yielded a half-maximal inhibitory concentration (IC50) in data set [1] of 3.8 nM.
In data set [1], `NC(=O)c1cccc(COc2ccc3oc(C(=O)CC(CCn4nnc5ccccc5c4=O)C(=O)O)cc3c2)c1` (racemic) [Example 32, (+/−)-4-{5-[(3-Carbamoylbenzyl)oxy]-1-benzofur-2-yl}-4-oxo-2-[2-(4-oxo-1,2,3-benzotriazin-3(4H)-yl)ethyl]butanoic acid] registered an IC50 of 0.68 nM. In data set [2], the “CLblood (calculated blood clearance, well-stirred)” value was 22 mL/min/kg and the “Fmax (maximum possible bioavailability after oral administration, well-stirred)” value is given as 68.5%.
For `N#CCCCOc1ccc2oc(C(=O)CC(CCn3nnc4ccccc4c3=O)C(=O)O)cc2c1` (racemic) [Example 15, (+/−)-4-[5-(3-Cyanopropoxy)-1-benzofur-2-yl]-4-oxo-2-[2-(4-oxo-1,2,3-benzotriazin-3(4H)-yl)ethyl]butanoic acid], it took 4.8 nM to reach half-maximal inhibition in data set [1] (IC50).
The same measure, in the same setting: under `O=C(CC(CCn1nnc2ccccc2c1=O)C(=O)O)c1cc2cc(OCCc3ccccc3)ccc2o1` (racemic) [Example 19, (+/−)-4-Oxo-2-[2-(4-oxo-1,2,3-benzotriazin-3(4H)-yl)ethyl]-4-[5-(2-phenylethoxy)-1-benzofur-2-yl]butanoic acid] stands 4.7 nM.
Molecule `O=C(CC(CCn1nnc2ccccc2c1=O)C(=O)O)c1coc2cc(OCCC3CCCCC3)ccc12` (racemic) [Example 76, (+/−)-4-[6-(2-Cyclohexylethoxy)-1-benzofur-3-yl]-4-oxo-2-[2-(4-oxo-1,2,3-benzotriazin-3(4H)-yl)ethyl]butanoic acid] had a 50% inhibitory concentration (IC50) in data set [1] of 0.66 nM.
Regarding `CCCCCOc1ccc2cc(C(=O)CC(CCn3nnc4ccccc4c3=O)C(=O)O)oc2c1` (racemic) [Example 55, (+/−)-4-Oxo-2-[2-(4-oxo-1,2,3-benzotriazin-3(4H)-yl)ethyl]-4-[6-(pentyloxy)-1-benzofur-2-yl]butanoic acid], in data set [1], the half-inhibitory concentration (IC50) stood at 3.7 nM.
The same measure, in the same setting: with `O=C(CC(CCn1nnc2ccccc2c1=O)C(=O)O)c1cc2cc(OCc3cccc(F)c3)ccc2o1` (racemic) [Example 43, (+/−)-4-{5-[(3-Fluorobenzyl)oxy]-1-benzofur-2-yl}-4-oxo-2-[2-(4-oxo-1,2,3-benzotriazin-3(4H)-yl)ethyl]butanoic acid] the figure was 1.3 nM; with `O=C(CC(CCn1nnc2ccccc2c1=O)C(=O)O)c1cc2cc(OCc3ccc(Cl)c(Cl)c3)ccc2o1` (racemic) [Example 25, (+/−)-4-{5-[(3,4-Dichlorobenzyl)oxy]-1-benzofur-2-yl}-4-oxo-2-[2-(4-oxo-1,2,3-benzotriazin-3(4H)-yl)ethyl]butanoic acid], 0.2 nM; with `CCCCCCOc1ccc2cc(C(=O)CC(CCn3nnc4ccccc4c3=O)C(=O)O)oc2c1` (single isomer, unassigned; (-)) [Example 65, (−)-4-[6-(Hexyloxy)-1-benzofur-2-yl]-4-oxo-2-[2-(4-oxo-1,2,3-benzotriazin-3(4H)-yl)ethyl]butanoic acid], 340 nM.
For the molecule `O=C(CC(CCn1nnc2ccccc2c1=O)C(=O)O)c1cc2cc(OCc3ccc(F)cc3F)ccc2o1` (racemic) [Example 52, (+/−)-4-{5-[(2,4-Difluorobenzyl)oxy]-1-benzofur-2-yl}-4-oxo-2-[2-(4-oxo-1,2,3-benzotriazin-3(4H)-yl)ethyl]butanoic acid], the half-inhibitory concentration (IC50) in data set [1] was found to be 2.1 nM.
Same read-out and setting: with `CCCCCOc1ccc2c(C(=O)CC(CCn3nnc4ccccc4c3=O)C(=O)O)coc2c1` (single isomer, unassigned) [Example 90, 4-Oxo-2-[2-(4-oxo-1,2,3-benzotriazin-3(4H)-yl)ethyl]-4-[6-(pentyloxy)-1-benzofur-3-yl]butanoic acid] the figure was 81 nM.

The record behind these values is US20170121315A1, “HETEROBICYCLICALLY SUBSTITUTED 4-OXOBUTANE ACID DERIVATIVES AND USE THEREOF” (priority 2014, published 2017).
